Assays:
IST-MES1 (Mesothelioma) = experiment: combination Emax (second highest fraction inhibited in the dose matrix, 72 h); higher = more inhibition; extreme values may be limits of the assay
In short: (§1)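 Cell lines in DMEM/F12 or RPMI with 10% FBS were plated in 1536-well plates, held 24 hours at 37°C, 5% CO2, then given two-drug dose matrices for 72 hours (DMSO typically 0.2%). Viability was read by CellTiter-Glo 2.0 luminescence and scaled as inhibition from 0 (vehicle wells) to 1 (blank wells). Combination Emax is the second-highest inhibition in the matrix; Bliss excess is observed combination effect minus expected EA + EB − EA·EB, EA and EB being single-agent effects.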

[1] = tested on: HEC-1 (Endometrial Carcinoma); experiment: as above
In short: as §1

SF539 (Glioblastoma) = experiment: as above
In short: as §1

[2] = tested on: MFE-280 (Endometrial Carcinoma); experiment: as above
In short: as §1

[3] = tested on: PANC-03-27 (Pancreatic Carcinoma); experiment: as above
In short: as §1

WM278 (Melanoma) = experiment: as above
In short: as §1

[4] = tested on: LK-2 (Squamous Cell Lung Carcinoma); experiment: as above
In short: as §1

[5] = tested on: CAL-120 (Breast Carcinoma); experiment: as above
In short: as §1

LN-229 (Glioblastoma) = experiment: as above
In short: as §1

[6] = tested on: COLO-680N (Esophageal Squamous Cell Carcinoma); experiment: as above
In short: as §1

[7] = tested on: RERF-LC-Sq1 (Squamous Cell Lung Carcinoma); experiment: as above
In short: as §1

SF268 (Low Grade Glioma) = experiment: as above
In short: as §1

[8] = tested on: REH (B-Lymphoblastic Leukemia); experiment: as above
In short: as §1

[9] = tested on: KE-37 (T-Lymphoblastic Leukemia); experiment: as above
In short: as §1

[10] = tested on: SK-PN-DW (Other Solid Carcinomas); experiment: as above
In short: as §1

[11] = tested on: NCI-H2342 (Lung Adenocarcinoma); experiment: as above
In short: as §1

[12] = tested on: 23132-87 (Gastric Carcinoma); experiment: as above
In short: as §1

[13] = tested on: VAL (B-Cell Non-Hodgkin's Lymphoma); experiment: Bliss excess, mean over the matrix (fraction); higher = more synergy
In short: as §1

[14] = tested on: OPM-2 (Plasma Cell Myeloma); experiment: as above
In short: as §1

[15] = tested on: CAL-120 (Breast Carcinoma); experiment: as above
In short: as §1
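Wherever Bliss excess, mean over the matrix is given: after 72 h of two-drug dosing.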

Structure (SMILES) | combination Emax (IST-MES1 (Mesothelioma)) | combination Emax [1] | combination Emax (SF539 (Glioblastoma)) | combination Emax [2] | combination Emax [3] | combination Emax (WM278 (Melanoma)) | combination Emax [4] | combination Emax [5] | combination Emax (LN-229 (Glioblastoma)) | combination Emax [6] | combination Emax [7] | combination Emax (SF268 (Low Grade Glioma)) | combination Emax [8] | combination Emax [9] | combination Emax [10] | combination Emax [11] | combination Emax [12] | Bliss excess [13] | Bliss excess [14] | Bliss excess [15]
CN(C)CCCOc1ccc(-c2ccc3ncc4c(c3c2)n(C2CCOCC2)c(=O)n4C)cn1 [AZD0156] + C[C@@H]1COCCN1C2=NC(=NC(=C2)C3(CC3)[S@](=N)(=O)C)C4=C5C=CNC5=NC=C4 [AZD6738] (first compound max 1 µM, 7x7, partner max 10 µM) | 0.176 | 0.363 | 0.929 | 0.335 | 0.862 | 0.341 | 0.501 | 0.437 | 0.54 | 0.267 | 0.843 | 0.497 | 0.625 | 1 | 0.928 | 0.166 | 0.873 | -0.0049 | 0.0261 | 0.0142
CN(C)CCCOc1ccc(-c2ccc3ncc4c(c3c2)n(C2CCOCC2)c(=O)n4C)cn1 [AZD0156] + CCN(CCO)CCCOc1ccc2c(Nc3cc(CC(=O)Nc4cccc(F)c4)[nH]n3)ncnc2c1 [AZD2811] (first compound max 1 µM, 7x7, partner max 1 µM) | 0.172 | 0.0528 | 0.394 | 0.47 | 0.2 | 0.0859 | 0.834 | 0.102 | 0.123 | 0.0884 | 0.306 | 0.142 | 0.481 | 1 | 0.605 | 0.145 | 0.118 | -0.0341 | 0.041 | -0.0164
Cc1c2c(nn1C)CSCc1cc(n(C)n1)CSc1cc(c3ccccc3c1)OCCCc1c(C(=O)O)n(C)c3c-2c(Cl)ccc13 [AZD5991] + CCN(CCO)CCCOc1ccc2c(Nc3cc(CC(=O)Nc4cccc(F)c4)[nH]n3)ncnc2c1 [AZD2811] (first compound max 1 µM, 7x7, partner max 1 µM) | 0.266 | 0.217 | 0.553 | 0.482 | 0.517 | 0.396 | 0.962 | 0.21 | 0.522 | 0.211 | 0.622 | 0.472 | 0.931 | 1 | 0.985 | 0.427 | 0.924 | -0.0541 | 0.0578 | -0.0077
CN(C)CCCOc1ccc(-c2ccc3ncc4c(c3c2)n(C2CCOCC2)c(=O)n4C)cn1 [AZD0156] + C=CCn1c(=O)c2cnc(Nc3ccc(N4CCN(C)CC4)cc3)nc2n1-c1cccc(C(C)(C)O)n1 [AZD1775] (first compound max 1 µM, partner max 1 µM) | 0.207 | 0.0682 | 1 | 0.55 | 0.91 | 0.228 | 0.898 | 0.326 | 0.314 | 0.196 | 0.758 | 0.225 | 0.757 | 1 | 0.871 | 0.162 | 0.645 | -0.0082 | -0.0607 | -0.0638
COc1nnc2ccc(N3CCC(c4ccc(OCCN5CCN(C)C(=O)[C@H]5C)cc4)CC3)nn12 [AZD5153] + C=CCn1c(=O)c2cnc(Nc3ccc(N4CCN(C)CC4)cc3)nc2n1-c1cccc(C(C)(C)O)n1 [AZD1775] (first compound max 1 µM, partner max 1 µM) | 0.576 | 0.827 | 0.944 | 0.383 | 0.604 | 0.581 | 0.929 | 0.489 | 0.431 | 0.353 | 0.743 | 0.637 | 0.926 | 0.978 | 0.762 | 0.711 | 0.636 | -0.126 | -0.0366 | -0.0176
COc1cc2ncnc(Nc3ccc(F)c(Cl)c3)c2cc1OCCCN1CCOCC1 [Gefitinib] + CC(C)n1c(=O)n(C)c2cnc3cc(F)c(-c4ccc(OCCCN5CCCCC5)nc4)cc3c21 [AZD1390] (first compound max 10 µM, 7x7, partner max 0.3 µM) | 0.17 | 0.0663 | 0.143 | 0.246 | 0.373 | 0.0959 | 0.2 | 0.14 | 0.0879 | 0.213 | 0.543 | 0.155 | 0.145 | 0.357 | 0.184 | 0.0812 | 0.127 | -0.0608 | -0.0151 | -0.0446

Source: the supplement of paper PMC11061612
